The values that follow come from patent publication US20250122218A1, “MODULATORS OF CYSTIC FIBROSIS TRANSMEMBRANE CONDUCTANCE REGULATOR” (Vertex Pharmaceuticals Incorporated, priority 2022, published 2025).

A word on the EC50: it is the concentration that produces a half-maximal response.

The target in the experiment is T1, CFTR in F508del/MF-HBE cells (Homo sapiens, UniProt P13569, DEL508-508).
T1 construct: human bronchial epithelial (HBE) cells derived from CF subjects heterozygous for F508del and a minimal function CFTR mutation; endogenous in cells; host or cells: primary human bronchial epithelial cells from CF subjects (F508del/MF-HBE)
T1 sequence (P13569 with tags, fused parts or gaps DEL508-508): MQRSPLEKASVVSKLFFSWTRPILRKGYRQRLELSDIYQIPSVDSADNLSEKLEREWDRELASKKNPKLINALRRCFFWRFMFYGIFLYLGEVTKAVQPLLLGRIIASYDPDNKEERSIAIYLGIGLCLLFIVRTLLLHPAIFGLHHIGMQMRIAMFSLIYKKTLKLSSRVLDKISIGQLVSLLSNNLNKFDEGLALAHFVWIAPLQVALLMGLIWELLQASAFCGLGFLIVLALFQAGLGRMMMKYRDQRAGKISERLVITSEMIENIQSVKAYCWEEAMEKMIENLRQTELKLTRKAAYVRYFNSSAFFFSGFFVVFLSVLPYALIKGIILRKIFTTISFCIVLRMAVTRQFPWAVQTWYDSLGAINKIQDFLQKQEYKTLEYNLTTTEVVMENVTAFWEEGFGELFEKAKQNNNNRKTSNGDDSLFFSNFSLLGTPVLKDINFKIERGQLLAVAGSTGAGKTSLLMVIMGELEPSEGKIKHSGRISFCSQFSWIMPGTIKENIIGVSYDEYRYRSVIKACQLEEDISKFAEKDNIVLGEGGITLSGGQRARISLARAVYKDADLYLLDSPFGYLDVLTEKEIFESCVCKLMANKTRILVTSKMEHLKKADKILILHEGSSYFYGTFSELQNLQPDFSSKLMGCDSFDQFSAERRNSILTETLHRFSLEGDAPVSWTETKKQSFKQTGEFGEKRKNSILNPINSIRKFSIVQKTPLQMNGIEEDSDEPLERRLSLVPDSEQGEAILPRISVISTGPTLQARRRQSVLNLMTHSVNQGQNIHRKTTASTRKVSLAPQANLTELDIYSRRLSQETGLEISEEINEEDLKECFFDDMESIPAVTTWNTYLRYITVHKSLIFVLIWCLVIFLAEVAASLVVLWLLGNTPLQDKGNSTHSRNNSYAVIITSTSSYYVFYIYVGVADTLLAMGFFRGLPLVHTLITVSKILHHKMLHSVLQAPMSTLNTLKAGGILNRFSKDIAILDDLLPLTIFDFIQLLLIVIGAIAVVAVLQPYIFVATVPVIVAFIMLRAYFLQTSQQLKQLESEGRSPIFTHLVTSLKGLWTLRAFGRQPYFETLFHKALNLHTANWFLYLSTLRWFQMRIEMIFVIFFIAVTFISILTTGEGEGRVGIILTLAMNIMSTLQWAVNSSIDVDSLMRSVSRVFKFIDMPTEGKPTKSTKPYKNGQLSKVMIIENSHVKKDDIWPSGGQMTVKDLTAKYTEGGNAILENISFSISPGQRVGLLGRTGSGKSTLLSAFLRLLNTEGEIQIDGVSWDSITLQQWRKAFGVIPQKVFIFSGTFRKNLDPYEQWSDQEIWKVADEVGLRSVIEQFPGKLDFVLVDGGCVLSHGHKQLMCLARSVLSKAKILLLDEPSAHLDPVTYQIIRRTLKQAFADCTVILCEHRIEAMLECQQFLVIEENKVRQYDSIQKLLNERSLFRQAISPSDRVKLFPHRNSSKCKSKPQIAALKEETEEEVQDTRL
Kind of experiment: Ussing chamber assay of CFTR-mediated short-circuit currents (identification of potentiator compounds). Type of experiment: cell-based. The conditions noted are these: potentiator incubated 18-24 hours at 37° C. in combination with 10 μM corrector, in the presence of 20% human serum, CFTR-mediated ISC. The method, then: Ussing chamber experiments were performed using human bronchial epithelial (HBE) cells derived from CF subjects heterozygous for F508del and a minimal function CFTR mutation (F508del/MF-HBE) and cultured as previously described (Neuberger T, Burton B, Clark H, Van Goor F; Methods Mol. Biol. 2011:741:39-54). After four days the apical media was removed, and the cells were grown at an air liquid interface for >14 days prior to use.
To isolate the CFTR-mediated short-circuit (ISC) current, F508del/MF-HBE grown on Costar® Snapwell™ cell culture inserts were mounted in an Ussing chamber and the transepithelial ISC was measured under voltage-clamp recording conditions (Vhold=0 mV) at 37° C. The basolateral solution contained (in mM) 145 NaCl, 0.83 K2HPO4, 3.3 KH2PO4, 1.2 MgCl2, 1.2 CaCl2), 10 Glucose, 10 HEPES (pH adjusted to 7.4 with NaOH) and the apical solution contained (in mM) 145 NaGluconate, 1.2 MgCl2, 1.2 CaCl2), 10 glucose, 10 HEPES (pH adjusted to 7.4 with NaOH) and 30 μM amiloride to block the epithelial sodium channel. Forskolin (20 μM) was added to the apical surface to activate CFTR, followed by apical addition of a CFTR inhibitor cocktail consisting of BPO, GlyH-101 and CFTR inhibitor 172 (each at 20 μM final assay concentration) to specifically isolate CFTR currents. The CFTR-mediated ISC (μA/cm^2) for each condition was determined from the peak forskolin response to the steady-state current following inhibition.
The activity of the CFTR potentiator compounds on the CFTR-mediated ISC was determined in Ussing chamber studies as described above. The F508del/MF-HBE cell cultures were incubated with the potentiator compounds at a range of concentrations in combination with 10 μM (14S)-8-[3-(2-{dispiro[2.0.2.1]heptan-7-yl}ethoxy)-1H-pyrazol-1-yl]-12,12-dimethyl-2λ^6-thia-3,9,11,18,23-pentaazatetracyclo[17.3.1.111,14.05,10]tetracosa-1(22),5,7,9,19(23),20-hexaene-2,2,4-trione for 18-24 hours at 37° C. and in the presence of 20% human serum. The concentration of potentiator compounds and (14S)-8-[3-(2-{dispiro[2.0.2.1]heptan-7-yl}ethoxy)-1H-pyrazol-1-yl]-12,12-dimethyl-2λ^6-thia-3,9,11,18,23-pentaazatetracyclo[17.3.1.111,14.05,10]tetracosa-1(22),5,7,9,19(23),20-hexaene-2,2,4-trione used during the 18-24 hours incubations was kept constant throughout the Ussing chamber measurement of the CFTR-mediated ISC to ensure compounds were present throughout the entire experiment. The efficacy and potency of the putative F508del potentiators was compared to that of the known potentiator, ivacaftor (N-[2,4-bis(1,1-dimethylethyl)-5-hydroxyphenyl]-1,4-dihydro-4-oxoquinoline-3-carboxamide).
Turning to “17-amino-12-[(3- cyclobutyl-5-fluoro- phenyl)methyl]-6- hydroxy-6,15- bis(trifluoromethyl)- 8,19-dioxa-3,4,12,18- tetrazatricyclo [12.3.1.12,5] nonadeca- 1(18),2,4,14,16- pentaen-13-one [Compound 263]”, the EC50 was < 500 nM.
Take “17-amino-12-[(3-tert- butylphenyl)methyl]- 6-hydroxy-6,15- bis(trifluoromethyl)- 8,19-dioxa-3,4,12,18- tetrazatricyclo [12.3.1.12,5] nonadeca- 1(18),2,4,14,16- pentaen-13-one [Compound 261]”: the EC50 was < 500 nM.
Next, `Nc1cc(C(F)(F)F)c2nc1-c1nnc(o1)[C@@](O)(C(F)(F)F)CCCCCN(CC1CCCCO1)C2=O` (mixture of isomers) [Compound 130, (6R)-17-amino-6-hydroxy-12-(tetrahydropyran-2-ylmethyl)-6,15-bis (trifluoromethyl)-19-oxa-3,4,12,18-tetrazatricyclo [12.3.1.12,5] nonadeca-1(18),2,4,14,1 6-pentaen-13-one]: < 500 nM; `Nc1cc(C(F)(F)F)c2nc1-c1nnc(o1)[C@@](O)(C(F)(F)F)CCCCCN(CC1CCCOC1)C2=O` (mixture of isomers) [Compound 131, (6R)-17-Amino-6-hydroxy-12-(tetrahydropyran-3-ylmethyl)-6,15-bis (trifluoromethyl)-19-oxa-3,4,12,18-tetrazatricyclo [12.3.1.12,5] nonadeca-1(18),2,4,14,1 6-pentaen-13-one]: < 500 nM.
Regarding `Nc1cc(C(F)(F)F)c2nc1-c1nnc(o1)[C@@](O)(C(F)(F)F)CCCCCN(C1CCCOC1)C2=O` (mixture of isomers) [Compound 133, (6R)-17-Amino-6-hydroxy-12-tetrahydropyran-3-yl-6,15-bis (trifluoromethyl)-19-oxa-3,4,12,18-tetrazatricyclo [12.3.1.12,5] nonadeca-1(18),2,4,14,1 6-pentaen-13-one], the EC50 is < 500 nM.
Regarding `Nc1cc(C(F)(F)F)c2nc1-c1nnc(o1)C(O)(C(F)(F)F)c1cc(ccc1F)CCCN(C1CC(F)(F)C1)C2=O` (racemic) [Compound 201, 20-amino-15-(3,3-difluorocyclobutyl)-8-fluoro-6-hydroxy-6,18-bis(trifluoromethyl)-23-oxa-3,4,15,21-tetraazatetracyclo [15.3.1.12,5.17,11] tricosa 1(21),2,4,7(22),8,10, 17,19-octaen-16-one], the concentration for a half-maximal effect (EC50) was < 500 nM.
Turning to `Nc1cc(C(F)(F)F)c2nc1-c1nnc(o1)C(O)(C(F)(F)F)CCCCCCC2` (single isomer, unassigned) [Compound 2, 17-amino-6,15-bis(trifluoromethyl)-19-oxa-3,4,18-triazatricyclo[12.3.1.12,5]nonadeca-1(18),2,4,14,16-pentaen-6-ol], the EC50 is < 500 nM.
On to `Nc1cc(C(F)(F)F)c2nc1-c1nnc(o1)C(O)(C(F)(F)F)CCCCCc1ccccc1-2` (single isomer, unassigned) [Compound 4, 21-amino-6,19-bis(trifluoromethyl)-23-oxa-3,4,22-triazatetracyclo[16.3.1.12,5.012,17]tricosa-1(22),2,4,12,14,16,18,20-octaen-6-ol], for which the EC50 is < 500 nM.
Turning to `Nc1cc(C(F)(F)F)c2nc1-c1nnc(o1)C(O)(C(F)(F)F)CCCCCc1ccccc1-2` (single isomer, unassigned) [Compound 5, 21-amino-6,19-bis(trifluoromethyl)-23-oxa-3,4,22-triazatetracyclo[16.3.1.12,5.012,17]tricosa-1(22),2,4,12,14,16,18,20-octaen-6-ol], the 50% effective concentration (EC50) is > 1000 nM.
To `Nc1cc(C(F)(F)F)c2nc1-c1nnc(o1)[C@](O)(C(F)(F)F)CCCCCCC2=O` (single isomer, unassigned) [Compound 7] belongs > 1000 nM; to `Nc1cc(C(F)(F)F)c2nc1-c1nnc(o1)C(O)(C(F)(F)F)CCCCCCC2O` (single isomer, unassigned) [Compound 8, 17-amino-6,15-bis(trifluoromethyl)-19-oxa-3,4,18-triazatricyclo[12.3.1.12,5]nonadeca-1(18),2,4,14,16-pentaene-6,13-diol], < 500 nM.
For `Nc1cc(C(F)(F)F)c2nc1-c1nnc(o1)C(O)(C(F)(F)F)CCCCCCC2O` (single isomer, unassigned) [Compound 9, 17-amino-6,15-bis(trifluoromethyl)-19-oxa-3,4,18-triazatricyclo[12.3.1.12,5]nonadeca-1(18),2,4,14,16-pentaene-6,13-diol], the EC50 is > 1000 nM.
Next, `Nc1cc(C(F)(F)F)c2nc1-c1nnc(o1)C(O)(C(F)(F)F)CCCCCCC2O` (single isomer, unassigned) [Compound 10, 17-amino-6,15-bis(trifluoromethyl)-19-oxa-3,4,18-triazatricyclo[12.3.1.12,5]nonadeca-1(18),2,4,14,16-pentaene-6,13-diol]: < 500 nM; `Nc1cc(C(F)(F)F)c2nc1-c1nnc(o1)C(O)(C(F)(F)F)CCCCCCC2O` (single isomer, unassigned) [Compound 11, 17-amino-6,15-bis(trifluoromethyl)-19-oxa-3,4,18-triazatricyclo[12.3.1.12,5]nonadeca-1(18),2,4,14,16-pentaene-6,13-diol]: > 1000 nM.
Consider `COC1CCCCCCC(O)(C(F)(F)F)C2=NN=C(O2)c2nc1c(C(F)(F)F)cc2N` (single isomer, unassigned) [Compound 12, 17-Amino-13-methoxy-6,15-bis(trifluoromethyl)-19-oxa-3,4,18-triazatricyclo[12.3.1.12,5]nonadeca-1(18),2,4,14,16-pentaen-6-ol], for which the EC50 was < 500 nM.
`COC1CCCCCCC(O)(C(F)(F)F)C2=NN=C(O2)c2nc1c(C(F)(F)F)cc2N` (single isomer, unassigned) [Compound 13, 17-amino-13-methoxy-6,15-bis(trifluoromethyl)-19-oxa-3,4,18-triazatricyclo[12.3.1.12,5]nonadeca-1(18),2,4,14,16-pentaen-6-ol]: the concentration giving a half-maximal response (EC50) was < 500 nM.
Consider `COC1CCCCCCC(O)(C(F)(F)F)C2=NN=C(O2)c2nc1c(C(F)(F)F)cc2N` (single isomer, unassigned) [Compound 14, 17-Amino-13-methoxy-6,15-bis(trifluoromethyl)-19-oxa-3,4,18-triazatricyclo[12.3.1.12,5]nonadeca-1(18),2,4,14,16-pentaen-6-ol], for which the EC50 was < 500 nM.
To `COC1CCCCCCC(O)(C(F)(F)F)C2=NN=C(O2)c2nc1c(C(F)(F)F)cc2N` (single isomer, unassigned) [Compound 15, 17-amino-13-methoxy-6,15-bis(trifluoromethyl)-19-oxa-3,4,18-triazatricyclo[12.3.1.12,5]nonadeca-1(18),2,4,14,16-pentaen-6-ol] belongs 500 to 1000 nM.
As for `CC1CCCCCCC(O)(C(F)(F)F)C2=NN=C(O2)c2nc1c(C(F)(F)F)cc2N` (single isomer, unassigned) [Compound 16, 17-Amino-13-methyl-6,15-bis(trifluoromethyl)-19-oxa-3,4,18-triazatricyclo[12.3.1.12,5]nonadeca-1(18),2,4,14,16-pentaen-6-ol], the EC50 is < 500 nM.
Next, `CC1CCCCCCC(O)(C(F)(F)F)C2=NN=C(O2)c2nc1c(C(F)(F)F)cc2N` (single isomer, unassigned) [Compound 17, 17-amino-13-methyl-6,15-bis(trifluoromethyl)-19-oxa-3,4,18-triazatricyclo[12.3.1.12,5]nonadeca-1(18),2,4,14,16-pentaen-6-ol]: < 500 nM; `CC1CCCCCCC(O)(C(F)(F)F)C2=NN=C(O2)c2nc1c(C(F)(F)F)cc2N` (single isomer, unassigned) [Compound 18, 17-amino-13-methyl-6,15-bis(trifluoromethyl)-19-oxa-3,4,18-triazatricyclo[12.3.1.12,5]nonadeca-1(18),2,4,14,16-pentaen-6-ol]: < 500 nM.
